Experiments:
PP2A = PP2A activity in lysates of Ramos B cell line; format: cell-based, Human
Procedure: PP2A Activity: The protein phosphatase activity of total cellular lysate was determined by measuring the generation of free PO4 from the threonine phosphopeptide using the malachite green-phosphate complex assay as described by the manufacturer (Upstate, Charlottesville, […].). Cell lysates were prepared in a low detergent lysis buffer (1% Nonidet P-40, 10 mM HEPES, 0.5M NaCl, 10% Glycerol, 1 mM PMSF, 5 mM Benzamidine, 10 μg/ml leupeptin). The phosphatase assay was performed in a PP2A-specific reaction buffer (Upstate) using 750 μM phosphopeptide substrate. After 30-min incubation at 30° C. malachite dye was added, and free phosphate was measured by optical density at 650 nm. To avoid variability among different immunoprecipitated samples, the phosphatase activities were normalized with the amount of PP2A immunoprecipitated, as detected and quantified by western blot analysis of each treatment group.
In order to determine if FTY720 induced activation of PP2A enzyme in CD19^+ B cells from CLL patients were treated with 10 uM FTY720 for 0, 1, 2, 3, 4 and 15 hrs and the PP2A activity in the lysates were quantified using a functional assay following immunoprecipitation of PP2A enzyme. As reported previously in other systems, FTY720 induced a consistent 2-3 fold increase in PP2A activation with the peak response observed at 4 hour post treatment (FIG. 6a). […]

ERK1/2 = test: Western blot of ERK1/2 phosphorylation in Mino cells; format: cell-based, Human
Procedure: Binding of FTY720 accelerates homing of peripheral lymphocytes to lymph node and activation of […] leads to extracellular signal-related kinase 1/2 (ERK1/2) phosphorylation. To determine if FTY720 influenced phosphorylation status of ERK-1, Mino cells were treated with FTY720 and the ERK1/2 phosphorylation status was analyzed by westernblot analysis using phospho ERK-1/2 and ERK1/2 antibodies. […] Similar FTY720 induced time dependent phosphorylation of ERK1/2 was also observed in Jeko cell line (Data not shown). FTY720 induced activation Ras-Raf-MAP kinase signaling pathway resulting in activation of serine/threonine kinase may contribute to ERK1/2 phosphorylation. Consistent with hypothesis ERK1/2 phosphorylation has been reported to occur in cells treated with Sphingosie 1-phosphate, that shares structural similarity to FTY72014. The role of FTY720 induced Erk1/2 phosphorylation in either toxicity, deregulation of the proteins such as Cyclin D1 or Akt and/or accumulation cells in G1 with concomitant decrease in S phase remains to be tested. Nevertheless these studies have identified Cyclin D1 and Akt proteins as two potential biomarkers for FTY720 responsiveness in MCL patient cells.

Cyclin D1 = test: Western blot of Cyclin D1 in primary MCL cells; format: cell-based, Human
Procedure: (§1) Primary MCL cells were isolated from PBMC (with informed patient consent under a protocol approved by IRB) as described before. All the MCL patients were identified as outlined by the World Health Organization (WHO) classification. Human mantle cell lymphoma patient cell lines (Mino and Jeko) were obtained from Dr. Raymond Lai. Primary cells or MCL cell lines were incubated in RPMI 1640 media, supplemented with 10%-20% heat-inactivated fetal bovine serum, 2 mM L-glutamine and penicillin (100 U/mL)/streptomycin ([…]) at 37° C. in an atmosphere of 5% CO2. FTY720 was synthesized as previously described. Toxicity was determined by flow cytometry using Annexin-V-FITC and Propidium Iodide (PI) staining. Apoptotic cells were identified as Annexin-V+ and/or PI+ cells. Cells excluding both FITC and PI were considered viable. Western Blotting was performed as described previously using indicated antibodies. […]
(§2) FTY720 induced apoptosis is associated with down-modulation of Cyclin D1 and Akt. […] To determine if the FTY720 induced apoptosis is mediated through modulation of these targets relevant to the pathogenesis of the disease, we evaluated the effect of FTY720 on levels of Cyclin D1, p-Akt and Akt proteins by Wester Blotting analysis using specific antibodies in primary MCL cells and cell lines. […]

[1] = system: acute myeloid leukemia (AML) cell lines; test: MTS proliferation assay in AML cell lines; format: cell-based; conditions: 48 hours
Procedure: Cell cultures were exposed for 48 hours to vehicle control and increasing concentrations of FTY720, and subsequently subjected to MTS assay per manufacturer's instructions. Mean concentrations (FIG. 9A) at which proliferation was inhibited by 50% (IC50) and representative dose curves (FIG. 9B) are shown. […] Using MTS assay, inhibition of cell proliferation for various derivatives was examined.

AML cell lines = test: Cell cycle analysis (propidium iodide DNA content) in AML cell lines; format: cell-based; conditions: 1 uM and 10 uM, 48 hours
Procedure: Cell suspensions were treated with vehicle control, 1 uM, and 10 uM FTY720 for 48 hours. After fixation in ethanol, samples were stained with propidium iodide, and assessed for DNA content. Percentage of cells in subG1, G1, S, and G2-M for each cell line are depicted (FIG. 11A) with representative plots below for MV411 (FIG. 11B). Although cell cycle arrest is not seen, induction of apoptosis is noted by the increased fraction of sub G1 with FTY720 treatment.

Akt = test: Western blot of p-Akt and Akt in primary MCL cells; format: cell-based, Human
Procedure: as §1, §2

## CCCCCCCCc1ccc(CCC(N)(CO)CO)cc1.Cl [FTY720, 2-Amino-2-[2-(4-octylphenyl)ethyl]propane 1,3-diol hydrochloride]
PP2A
  earliest time of FTY720 induced PP2A activation: 3 h
ERK1/2
  earliest time of ERK1/2 phosphorylation: 2 h
  time of maximal ERK1/2 phosphorylation: 4 h
Cyclin D1; 8 hrs post treatment
  down-regulation of Cyclin D1 protein: 35%
Cyclin D1; 24 hrs
  down-regulation of Cyclin D1 protein: 70%
[1]
  proliferation of AML cell lines (MTS): inhibits proliferation
AML cell lines
  cell cycle arrest in AML cell lines: does not cause cell cycle arrest
Akt
  p-Akt level: decrease in p-Akt

Source: patent US8318812B2, “Therapeutic agents for the treatment of lymphoid malignancies” (The Ohio State University Research Foundation, priority 2006, dated 2012)
